Patent US10106532B2, “Inhibitors of beta-hydroxylase for treatment of cancer” (MIDWESTERN UNIVERSITY, priority 2012, dated 2018)
“Also recorded” adds a separate entry of the source. One block for each compound: values may come before it.

Experiments:
ASPH [1] = target: T1, ASPH (Homo sapiens, UniProt Q12797); experiment: binding to ASPH by isothermal titration calorimetry
T1 sequence (Q12797 1-758): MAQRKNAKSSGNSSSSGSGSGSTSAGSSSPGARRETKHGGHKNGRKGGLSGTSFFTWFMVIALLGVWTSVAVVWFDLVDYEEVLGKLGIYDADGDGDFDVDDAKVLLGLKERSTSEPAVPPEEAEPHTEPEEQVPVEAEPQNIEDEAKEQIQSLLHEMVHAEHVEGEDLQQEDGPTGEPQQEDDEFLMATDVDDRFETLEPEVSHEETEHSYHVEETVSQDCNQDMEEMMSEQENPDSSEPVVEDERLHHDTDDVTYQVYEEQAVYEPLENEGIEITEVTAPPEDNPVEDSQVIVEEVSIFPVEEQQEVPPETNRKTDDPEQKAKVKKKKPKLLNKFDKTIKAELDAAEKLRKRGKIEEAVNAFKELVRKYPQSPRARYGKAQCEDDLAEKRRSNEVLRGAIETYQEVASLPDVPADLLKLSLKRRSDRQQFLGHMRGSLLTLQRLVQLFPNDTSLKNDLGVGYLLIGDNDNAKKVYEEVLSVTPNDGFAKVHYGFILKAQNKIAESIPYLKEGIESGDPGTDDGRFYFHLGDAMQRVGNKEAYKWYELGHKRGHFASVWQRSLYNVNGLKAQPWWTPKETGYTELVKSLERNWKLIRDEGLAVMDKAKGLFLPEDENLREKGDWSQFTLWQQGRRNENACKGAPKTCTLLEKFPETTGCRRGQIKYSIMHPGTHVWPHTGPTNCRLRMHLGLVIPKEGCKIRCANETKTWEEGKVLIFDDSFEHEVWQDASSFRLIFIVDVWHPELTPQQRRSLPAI
Source text: In the second step arylhydroxytetronimide was sulfonylated with phenylmethansulfonyl chloride in dry tetrahydrofuran to yield compounds of formula 1 (shown below). Compounds were characterized by 1H and 13C nuclear magnetic resonance, high resolution mass spectroscopy, high performance liquid chromatography, infra-red spectroscopy, melting point, elemental analysis and binding to ASPH by isothermal titration calorimetry.
Candidate parent compounds were selected as inhibitors for β-hydroxylase activity based on crystal structure of the catalytic site in the C-terminal region of ASPH and computer assisted drug design.

FOCUS cells [2] = experiment: MTT assay (cell proliferation, metabolic activity); assay type: cell-based, human; details: micromolar concentrations
Experimental: (§1) A MTT assay was performed to evaluate the effect of MO-1-1100 on cell proliferation and viability. MTT is reduced to purple formazan in living cells. FOCUS cells were used as a high ASPH expressing human HCC cell line. […] The MTT assay measures cellular metabolic activity via NAD(P)H-dependent cellular oxidoreductase enzymes. […] In order to evaluate the effect of long-term exposure of MO-1-1100, the colony formation assay (an assay of malignant potential and phenotype) in which cells were treated with inhibitor for 3 weeks was performed.

NIH-3T3 cells = experiment: MTT assay (cell proliferation, metabolic activity); assay type: cell-based, mouse
Experimental: as §1

FOCUS HCC cells = experiment: colony formation assay; assay type: cell-based, human; details: 1.25 μM
Experimental: as §1

FOCUS cells [3] = experiment: anchorage independent growth in soft agar; assay type: cell-based, human
Experimental: The effect of MO-1-1100 on anchorage independent growth in soft agar was evaluated. The ability of forming colonosphere in soft agar is considered to be a rigid test for tumorigenic potential. ASPH expression results in cells acquiring the ability to form colonospheres in soft agar. […] In order to evaluate the effect of ASPH inhibitor for anchorage independent colony formation, FOCUS cells were incubated in soft agar with or without this ASPH enzymatic inhibitor. After 3 weeks incubation, MO-1-1100 reduced colonosphere formation of FOCUS cells (FIG. 9A). […] This assay is a standard method to monitor malignant growth that reflects the ability to form tumors that grow aggressively in vivo.

FOCUS cells [4] = experiment: directional motility, Boyden chamber-type culture inserts; assay type: cell-based, human; details: 5 μM pretreatment for 24 hours, migration 30 min
Experimental: (§2) The β-hydroxylase activity is required for ASPH to mediate its effects on cell motility. Directional motility was measured using Boyden chamber-type culture inserts equipped with porous membranes. FOCUS cells were pretreated with 5 μM of MO-1-1100 and MO-1-500 β-hydroxylase inhibitor for 24 hours, and then placed into the upper chamber. Migration was allowed to proceed for 30 min. ATPLite was used to quantify viable cell density. The cells in the upper well and upper surface of membrane reflects the number of non-migrating cells, luminescence measured at the bottom surface of the membrane reflects the number of migrating and non-adherent cells and luminescence measured in the bottom well was reflect migrating and non-adherent cells. […] Cell invasiveness was assessed by invasion assay using matrigel coated membrane, in which cells were allowed to proceed for 6 hours; those found adhered on the bottom surface of membrane were regarded as invading cells.

FOCUS cells [5] = experiment: invasion assay using matrigel coated membrane; assay type: cell-based, human; details: 6 hours, compared to DMSO control
Experimental: as §2

ASPH [6] = target: T1, ASPH; experiment: high throughput 14CO2 capture enzymatic assay for ASPH β-hydroxylase activity (ASPH mAb capture from lysates of treated FOCUS cells); assay type: biochemical; parameters: endogenous in cells; host or cells: FOCUS cells (human hepatocellular carcinoma line)
Experimental: In yet another aspect, the disclosure provides a method determining ASPH activity by contacting an EGF-like domain peptide with a detectably-labeled α-ketoglutarate and ASPH enzyme and measuring β-hydroxylase activity. In one embodiment, said α-ketoglutarate is ^14C-labelled, and wherein β-hydroxylase activity is measured by detecting liberated ^14CO2. In one embodiment, said liberated ^14CO2 is captured on a filter and radioactivity quantified. […] In one embodiment, said EGF-like domain comprises the amino acid sequence of […] (SEQ ID NO:1). In one embodiment, said EGF-like domain peptide comprises the consensus sequence of CDXXXCXXKXGNGXCDXXCNNAACXXDGXDC (SEQ ID NO: 2).
FIG. 3A is a diagram of the biochemical reaction catalyzed by ASPH derived from PC cell lysates. FIG. 3B is a cartoon illustrating the read-out to quantify ASPH activity in PC cells and tumors. FIG. 3C is an image of membrane was obtained by a phosphor-imager after a 16 hour exposure of the trapping filter to a phospho-screen. FIG. 3D is a bar graph showing intensities were calculated by Image J software and compared to a DMSO control. Vertical bars represent standard deviation. These figures show methods of measurement and data relating to ASPH catalytic activity.
EGF and EGF-like domains are well known in the art and generally include six cysteine residues which have been shown (in EGF) to be involved in disulfide bonds. The main structure is a two-stranded beta-sheet followed by a loop to a C-terminal short two-stranded sheet. Subdomains between the conserved cysteines vary in length. Examples include those described in Davis, C G, 1990, New Biol. 2(5):410-9; Blomquist et al., 1984, Proc Natl Acad Sci USA. 81(23):7363-7; Hommel et al., […], J Mol Biol. 227(1):271-82; Doolittle et al., 1984, Nature. 307(5951):558-60; Appella et al., 1988, FEBS Lett. 231(1):1-4; Sorkin A., 2001, Biochem Soc Trans. August; 29(Pt 4):480-4; each of which is hereby incorporated by reference). FIGS. 3A-C represents the strategy for development and characterization of the performance of an assay to measure ASPH enzymatic activity. FIG. 3A describes the biochemical reaction catalyzed by ASPH. FIG. 3B depicts the read-out of the assay. Protein lysates were extracted from FOCUS cells (high level of ASPH cell surface expression) treated with 1-10 μM of each parent compound for 24 hours. The lysates were added into 96 well-plates coated with ASPH monoclonal antibodies (mAbs) to add an antigen specific (ASPH) capture step to the assay design. After incubation and washing, only ASPH is captured on each well. The reaction is carried out with 60 μM of an EGF domain containing 39AA peptide, 100 μM FeCl2 and 40 μM ^14C labeled α-ketoglutarate were added into each well. The ^14CO2 was captured on a glass fiber membrane soaked in Ca(OH)2. […] The compound was further characterized for clinical use as an anti-tumor agent for PC and HCC and other ASPH-expressing tumors.

SMILES: NC1=C(OS(=O)(=O)c2ccccc2)C(=O)C(c2ccc(Cl)cc2)O1 (centres unmarked) [Compound 7c, 2-(4-chlorophenyl)-4-[[phenylsulfonyl]oxy]-5-amino-3(2H)-furanone]
melting point: 190 to 195 °C

SMILES: NC1=C(O)C(=O)C(c2ccc(Cl)cc2)O1 (centres unmarked) [Example 1c, 5-amino-4-hydroxy-2-(4-chlorophenyl)-furan-3-one]
melting point: 221 to 222 °C

SMILES: NC1=C(O)C(=O)C(c2ccccc2F)O1 (centres unmarked) [Example 1j, 5-amino-4-hydroxy-2-(2-fluorophenyl)-furan-3-one]
melting point: 160 to 163 °C

SMILES: NC1=C(O)C(=O)C(c2cccc(F)c2)O1 (centres unmarked) [Example 1k, 5-amino-4-hydroxy-2-(3-fluorophenyl)-furan-3-one]
melting point: 168 °C

SMILES: NC1=C(O)C(=O)C(c2cc(F)ccc2F)O1 (centres unmarked) [Example 1o, 5-amino-4-hydroxy-2-(2,5-difluorophenyl)-furan-3-one]
melting point: 196 °C

SMILES: NC1=C(O)C(=O)C(c2cc(F)cc(F)c2)O1 (centres unmarked) [Example 1r, 5-amino-4-hydroxy-2-(3,5-difluorophenyl)-furan-3-one]
melting point: 190 to 191 °C

SMILES: CC(=O)OC1=C(N)OC(c2ccc(Cl)cc2)C1=O (centres unmarked) [Example 2c, 2-(4-chlorophenyl)-4-(acetoxy)-5-amino-3(2H)-furanone]
melting point: 221 to 222 °C

SMILES: CCS(=O)(=O)Nc1oc(-c2ccc(Cl)cc2)c(O)c1O [MO-1-500]
ASPH binding (ASPH [1]): confirmed to demonstrate ASPH binding
cell proliferation and metabolic activity (FOCUS cells [2]): striking affects; also recorded: growth inhibited
specificity for the β-hydroxylase activity of ASPH (NIH-3T3 cells; FOCUS (express ASPH) versus NIH-3T3 (do not express ASPH)): not specific for ASPH
cell proliferation and metabolic activity (NIH-3T3 cells; NIH-3T3 cells, micromolar concentrations): striking affects; also recorded: growth inhibited
colony formation (FOCUS HCC cells): substantial inhibitory effects; also recorded: strikingly inhibits
number of colonies formed and colony size in soft agar (FOCUS cells [3]; 1 μM): dramatically reduced
number and size of FOCUS cell colonies in soft agar (FOCUS cells [3]; 0.5, 1, and 5 μM): striking reduction
cell migration / motility (FOCUS cells [4]): pronounced effect
invasiveness (FOCUS cells [5]): pronounced effect
identified as hits (screening for inhibition of β-hydroxylase activity) (ASPH [6]): identified as hits
ASPH enzymatic activity (ASPH [6]; 5 μM): inhibited
ASPH enzymatic inhibitory activity (β-hydroxylase) (ASPH [6]; concentration not given): inhibit

Second part, the compound after the results:

melting point: 193 °C
SMILES: NC1=C(O)C(=O)C(c2cccc(F)c2F)O1 (centres unmarked) [Example 1m, 5-amino-4-hydroxy-2-(2,3-difluorophenyl)-furan-3-one]

melting point: 182 to 183 °C
SMILES: NC1=C(O)C(=O)C(c2ccc(F)cc2F)O1 (centres unmarked) [Example 1n, 5-amino-4-hydroxy-2-(2,4-difluorophenyl)-furan-3-one]

melting point: 159 to 160 °C
SMILES: NC1=C(O)C(=O)C(c2c(F)cccc2F)O1 (centres unmarked) [Example 1p, 5-amino-4-hydroxy-2-(2,6-difluorophenyl)-furan-3-one]

melting point: 190 to 194 °C
SMILES: NC1=C(O)C(=O)C(c2ccc(F)c(F)c2)O1 (centres unmarked) [Example 1q, 5-amino-4-hydroxy-2-(3,4-difluorophenyl)-furan-3-one]
